How the values were obtained:
[1] = biological target: T1, chimeric transactivator λR-GyrB-NFκB (UniProt P03034+P0AES6); assay: Coumermycin-induced reporter (Luc/GFP) expression, transient transfection of 293A cells with wild type transactivator; format: cell-based, Human; conditions: 5 nM, 40 hr
T1 construct: the GyrB domain (codons 2-220 of bacterial DNA gyrase); expressed in transfected cells; host or cells: human embryonic kidney 293A cells, transient transfection with pGyrB plus reporter plasmid, or with pCUR
Protocol: FIG. 2A. Either two plasmids pGFP and pGyrB (double plasmids, each 0.5 μg), or one plasmid pCUR (1.0 μg) containing the GFP gene (single plasmid), were transiently transfected into 293A cells.
FIG. 2B. Either two plasmids pLuc and pGyrB (DP, each 0.2 μg), or one plasmid pCUR (0.4 μg) containing the Luc gene (SP), were transiently transfected into 293A cells, respectively. […] The results shown are the means for triplicate determinations and representative of 3 experiments. The transfection efficiencies were normalized by co-transfection of pRL-TK vector constitutively producing Renilla luciferase.
Exponentially growing 293A cells were seeded at 8×10^5 in 60 mm dishes the day prior to transfection and co-transfected with 5 μg of XmnI linearized pLuc and 0.2 μg of pcDNA3.1 hygromycin using the SuperFect kit (Qiagen). Alternatively, the cells were transfected with PvuI linearized pCUR. Two days following transfection, the cells were replaced into 100 mm dishes, and selected with appropriate antibiotics for 2 weeks. Single clone was selected for further assay. […] Luc activity was determined using 20 μl of total cell lysate using the Dual-Luciferase Reporter Assay System (Promega). The reporter firefly luciferase activities were measured and normalized by the transfection efficiencies estimated by the activities of Renilla luciferase constitutively expressed from cotransfected pRL-TK. […]

[2] = system: S92G-mutated chimeric λR-GyrB transactivator; assay: Coumermycin-dependent luciferase activity in stable 293A clones (pCUR, S92G transactivator); format: cell-based, Human
Protocol: FIG. 4B. […] Results represent two independent experiments performed in triplicate.
Alternatively, the cells were transfected with PvuI linearized pCUR. Two days following transfection, the cells were replaced into 100 mm dishes, and selected with appropriate antibiotics for 2 weeks. Single clone was selected for further assay. […] After 40 hrs induction, cells were lysed in 100 μl lysis buffer (Promega) for 20 min. Luc activity was determined using 20 μl of total cell lysate using the Dual-Luciferase Reporter Assay System (Promega). The reporter firefly luciferase activities were measured and normalized by the transfection efficiencies estimated by the activities of Renilla luciferase constitutively expressed from cotransfected pRL-TK. For inducible expression of the Bax gene, wild-type K562 cells were transfected using electroporation with 5 μg DNA of the linearized pBax and pGyrB. Cell lines were selected with hygromycin and positive clones were screened in the induced and non-induced states using anti-Bax antibody visualized by Western blot.
Cells were stably transfected with pCUR containing the Luc gene. […] Values are means of three independent luciferase determinations from three independently cell cultures.
The kinetic characteristics of this inducible system were further examined in stable cell lines.

K562-Bax cells = assay: Flow cytometric analysis of apoptosis (Annexin-V) in K562-Bax cells; format: cell-based, Human; conditions: 5 nM coumermycin, 36 hr; 6.7% without treatment
Source text: (§1) It has been reported that high-level expression of Bax (Bcl2-associated X protein) elicits apoptosis in a variety of human cancer cells (17). In malignant hematopoietic cells, including k562, Bax overexpression leads to apoptosis of the transfected cells through cytochrome C release (18). To evaluate the tightness of gene expression regulated by the chimeric transactivator, the apoptotic Bax gene was cloned into the transgene-expression cassette from the two-plasmid induction system previously described. […] Stable clones harboring the both plasmids were isolated and characterized following induction.

K562-Bax 65 cells = assay: Western blot of Bax expression and cytosolic cytochrome C in clone K562-Bax 65; format: cell-based, Human; conditions: 5 nM coumermycin, 36 hr
Source text: as §1

[3] = system: S92G-mutated chimeric λR-GyrB transactivator; format: cell-based, Human
Source text: FIG. 5A. […] Results represent two independent experiments performed in triplicate.
Results shown are the means for triplicate determinations and representative of 3 experiments.

293A cells = format: cell-based, Human; conditions: 25 μM, cell growth rate and CMV-GFP expression
Protocol: At a concentration of 5 μM novobiocin, however, over 98% of the coumermycin-induced luciferase expression was suppressed (FIG. 5A).

[4] = cited from earlier work

coumermycin
GFP expression ([1]; both plasmid systems): greatly induced
induction of luciferase activity ([1]; wild type λR, double- and single-plasmid cassettes): around 50 fold
induction time at which appreciable luciferase activity was detected ([2]; 5 nM coumermycin, clone S92G-5): 5 h
induction time for maximal inducibility ([2]; 5 nM coumermycin, clone S92G-5): 24 h
higher doses causing reduced induction of gene expression ([2]; FIG. 4A): > 0.5 µM
concentration at which inducibility was decreased ([2]; clone S92G-5, 40 hr): 50 nM
concentration for maximal induction ([2]; clone S92G-5, 40 hr): 2.5 to 5 nM
lowest concentration giving apparent induction of luciferase expression ([2]; clone S92G-5, 40 hr): approximately 0.5 ng/ml
lowest concentration giving appreciable/apparent induction of gene expression ([2]; clone S92G-5, 40 hr, luciferase): 0.5 nM
Luciferase Activity With Coum ([2]; stable clone 5, coumermycin 5 nM): 47,460 ± 447 Arbitrary Light Units/μg protein
Activation factor ([2]; stable clone 5, with vs without coumermycin 5 nM): 5.1 × 10^3
Luciferase Activity With Coum ([2]; stable clone 8, coumermycin 5 nM): 52,408 ± 2,254 Arbitrary Light Units/μg protein
Activation factor ([2]; stable clone 8, with vs without coumermycin 5 nM): 1.5 × 10^3
Luciferase Activity With Coum ([2]; stable clone 10, coumermycin 5 nM): 1,591 ± 100 Arbitrary Light Units/μg protein
Activation factor ([2]; stable clone 10, with vs without coumermycin 5 nM): 3.2 × 10^3
Luciferase Activity With Coum ([2]; stable clone 18, coumermycin 5 nM): 7,446 ± 36 Arbitrary Light Units/μg protein
Activation factor ([2]; stable clone 18, with vs without coumermycin 5 nM): 5.8 × 10^3
Luciferase Activity With Coum ([2]; stable clone 23, coumermycin 5 nM): 8,237 ± 204 Arbitrary Light Units/μg protein
Activation factor ([2]; stable clone 23, with vs without coumermycin 5 nM): over 10,000
Activation factor ([2]; stable clone 23, with vs without coumermycin 5 nM, listed as Coumermycin): 1.4 × 10^4
Luciferase Activity With Coum ([2]; stable clone 28, coumermycin 5 nM): 12,292 ± 550 Arbitrary Light Units/μg protein
Activation factor ([2]; stable clone 28, with vs without coumermycin 5 nM): 5.1 × 10^3
Luciferase Activity With Coum ([2]; stable clone 34, coumermycin 5 nM): 46,980 ± 1,300 Arbitrary Light Units/μg protein
Activation factor ([2]; stable clone 34, with vs without coumermycin 5 nM): 5.8 × 10^3
Luciferase Activity With Coum ([2]; stable clone 44, coumermycin 5 nM): 30,151 ± 2020 Arbitrary Light Units/μg protein
Activation factor ([2]; stable clone 44, with vs without coumermycin 5 nM): over 10,000
Activation factor ([2]; stable clone 44, with vs without coumermycin 5 nM, listed as Coumermycin): 1.3 × 10^4
Luciferase Activity With Coum ([2]; stable clone 45, coumermycin 5 nM): 1,909 ± 24 Arbitrary Light Units/μg protein
Activation factor ([2]; stable clone 45, with vs without coumermycin 5 nM): 1.6 × 10^3
Luciferase Activity With Coum ([2]; stable clone 47, coumermycin 5 nM): 8,528 ± 43 Arbitrary Light Units/μg protein
Activation factor ([2]; stable clone 47, with vs without coumermycin 5 nM): 2.1 × 10^3
fraction of apoptotic cells (K562-Bax cells): 45.5%
Bax expression (Western blot) (K562-Bax 65 cells): greatly induced
cytochrome c release from mitochondria (Western blot) (K562-Bax 65 cells): released in substantial amounts

CO[C@@H]1[C@@H](OC(N)=O)[C@@H](O)[C@H](Oc2ccc3c(O)c(NC(=O)c4ccc(O)c(CC=C(C)C)c4)c(=O)oc3c2C)OC1(C)C [novobiocin]
extent of switch-off of coumermycin-induced luciferase expression ([3]; 2.5 μM novobiocin added after 11 hr induction with 5 nM coumermycin): nearly completely switched off
suppression of coumermycin-induced luciferase expression ([3]; 5 μM novobiocin with 5 nM coumermycin, 40 hr): over 98%
cellular toxicity (293A cells): do not exert any detectable cellular toxicity
in vivo half-life [4]: 6 h
serum half-life ([4]; serum, in vivo): 6 h
